Consider four molecules from EP4786485A1, “STRAIGHT CHAIN PEPTIDE COMPOUND AND USE THEREOF” (Shenzhen Zhongge Biological Technology Co., Ltd., priority 2023, dated 2026).

Common to all, as to format: cell-based, Human
The subject of assay [1] is Collagen I (type I collagen). In words: ELISA: effect of increasing the content of Collagen I in fibroblasts. Particulars: 1 µM, 24 h; for Effect of increasing the content of Collagen I in the fibroblasts: human-derived fibroblasts, ELISA, blank control BC = 35.6; for increase in the content of type I collagen (Collagen I): in words, compared to the BC, fibroblasts. On the set-up: Effect of increasing the content of Collagen I in the fibroblasts: unit not given here. As to the method:
(§1) B. Effects of increasing the contents of Collagen I (type I collagen), hyaluronic acid (HA), and Elastin (ELN) in fibroblasts
(§2) Test materials: Human-derived fibroblasts (Guangdong BioCell Biotechnology Co., Ltd., Lot No. Fb20081902), DMEM culture medium (Gibco, 23042301, expiration date 230522), PBS (Solarbio, P1010), TGF-β1 (Peprotech, 230504), Collagen I ELISA Kit (Cusabio, B21025824), Elastin ELISA Kit (Abcam, GR3446070-2), HA ELISA Kit (RD, P325066), CO2 incubator (Thermo, 150I), super-clean bench (AIRTECH, SW-CJ-1F), and microplate reader (BioTek, Epoch).
(§3) Test methods: • 1) Inoculation: After cell resuscitation, the cells were inoculated into 6-well plates when the plating rate reached around 60%, and were incubated overnight in an incubator (37°C, 5% CO2). • 2) Formulation of solutions: The linear peptide compounds in the sample groups, and PC2 (Biotinoyl-GHK, [drawing 69] ) and PC3 ( [drawing 70] ) in the positive control group were all at the concentration of 1 µM, and the test substance working solutions were formulated. • 3) Administration: When the cell plating rate in the 6-well plates reached 40% to 60%, administration was performed at 2 mL per well. Three duplicate wells were set for each group. Incubation was performed in an incubator (37°C, 5% CO2) for 24 h. • 4) ELISA assay: The ELISA assays were performed according to the instructions of the respective ELISA kits, with the detection indicators being effect of increasing the content of Collagen I in the fibroblasts, effect of increasing the content of HA in the fibroblasts, and effect of increasing the content of Elastin in the fibroblasts, respectively.
(An ELISA detects its analyte on a solid surface through an enzyme-linked reagent.)

The subject of a further assay is hyaluronic acid (HA). As to the kind of experiment: ELISA: effect of increasing the content of HA in fibroblasts. On the set-up: Effect of increasing the content of HA in the fibroblasts: unit not given here. Particulars: 1 µM, 24 h; for Effect of increasing the content of HA in the fibroblasts: human-derived fibroblasts, ELISA, blank control BC = 1402.44; for increase in the content of hyaluronic acid (HA): in words, compared to the BC, fibroblasts. As to the method:
as §1, §2, §3

Another assay has as its system Elastin (ELN). As to the kind of experiment: ELISA: effect of increasing the content of Elastin in fibroblasts. Further details: Effect of increasing the content of Elastin in the fibroblasts: unit not given here. Particulars: 1 µM; for Effect of increasing the content of Elastin in the fibroblasts: 24 h incubation, ELISA, blank control (BC) 756.52; for increase in the content of Elastin: in words, compared to the BC, 24 h, fibroblasts. As to the method: as §1, §2, §3

Where a SMILES comes first, the peptide text is derived from it. [ ]: non-standard residue; d: D form. The star is where a group is joined. Biotin = O=C1N[C@H]2[C@H](CS[C@H]2CCCCC(=O)*)N1; Lys(Me3) = C[N+](C)(C)CCCC[C@H](N)C(=O)O; Phe(4-Me) = Cc1ccc(C[C@H](N)C(=O)O)cc1; Palmitoyl = CCCCCCCCCCCCCCCC(=O)*; Hyp = O=C(O)[C@@H]1C[C@@H](O)CN1

In the case of `CCCCCCCCCCCCCCCC(=O)N[C@@H](CCCC[N+](C)(C)C)C(=O)NCC(=O)N[C@@H](Cc1c[nH]cn1)C(=O)N[C@@H](CCCCNC(=O)[C@@H]1C[C@@H](O)CN1)C(=O)N[C@@H](Cc1ccc(C)cc1)C(=O)O` [compound 403] (Palmitoyl-[Lys(Me3)]GHK(Hyp)[Phe(4-Me)]-OH), in assay [1], the “Effect of increasing the content of Collagen I in the fibroblasts” value was determined as 97.51 and the “increase in the content of type I collagen (Collagen I)” value (“increase in the content … (Collagen I)” for short) is “significant increase”. Besides, in the assay on hyaluronic acid (HA), the “Effect of increasing the content of HA in the fibroblasts” value (shortened to “Effect of increasing the content of HA”) stood at 2688.75 and the “increase in the content of hyaluronic acid (HA)” value (from here on “increase in the content … (HA)”) is “significant increase”. In the assay with Elastin (ELN), the “Effect of increasing the content of Elastin in the fibroblasts” value stood at 928.61 and the “increase in the content of Elastin” value is “significant increase”.
`Cc1ccc(C[C@H](NC(=O)[C@H](CCCCNC(=O)[C@@H]2C[C@@H](O)CN2)NC(=O)[C@H](Cc2c[nH]cn2)NC(=O)CNC(=O)[C@H](CCCC[N+](C)(C)C)NC(=O)CCCC[C@@H]2SC[C@@H]3NC(=O)N[C@@H]32)C(N)=O)cc1` [compound 406] (Biotin-[Lys(Me3)]GHK(Hyp)[Phe(4-Me)]-NH2): in assay [1], the “Effect of increasing the content of Collagen I in the fibroblasts” value was 88.9 and the “increase in the content … (Collagen I)” value is recorded as “significant increase”. In the assay on hyaluronic acid (HA), the “Effect of increasing the content of HA” value worked out at 1473.32 and the “increase in the content … (HA)” value is recorded as “significant increase”. Further, in the assay on Elastin (ELN), the “Effect of increasing the content of Elastin in the fibroblasts” value was 947.33 and the “increase in the content of Elastin” value is recorded as “significant increase”.
`CCCCCCCCCCCCCCCC(=O)N[C@@H](Cc1ccc(C)cc1)C(=O)N[C@@H](C)C(=O)N[C@@H](CCCCN)C(=O)N[C@@H](Cc1c[nH]cn1)C(=O)NCC(=O)N[C@@H](CCCC[N+](C)(C)C)C(=O)O` [compound 415] (Palmitoyl-[Phe(4-Me)]AKHG[Lys(Me3)]-OH): in assay [1], the “Effect of increasing the content of Collagen I in the fibroblasts” value amounted to 85.52 and the “increase in the content … (Collagen I)” value is recorded as “significant increase”. Moreover, in the assay on hyaluronic acid (HA), the “Effect of increasing the content of HA” value is 1570.27 and the “increase in the content … (HA)” value is given as “significant increase”. Moreover, in the assay with Elastin (ELN), the “Effect of increasing the content of Elastin in the fibroblasts” value came to 1010.76 and the “increase in the content of Elastin” value is “significant increase”.
For the molecule `CCCCCCCCCCCCCCCC(=O)N[C@@H](Cc1ccc(OCC)cc1)C(=O)N[C@@H](C)C(=O)N[C@@H](CCCCN)C(=O)N[C@@H](Cc1c[nH]cn1)C(=O)NCC(=O)N[C@@H](CCCC[N+](C)(C)C)C(=O)O` [compound 417] (Palmitoyl-Y(Et)AKHG[Lys(Me3)]-OH), in assay [1], the “Effect of increasing the content of Collagen I in the fibroblasts” value came out at 92.88 and the “increase in the content … (Collagen I)” value is on record as “significant increase”. In the assay with hyaluronic acid (HA), the “Effect of increasing the content of HA” value came out at 1938.51 and the “increase in the content … (HA)” value is on record as “significant increase”. In the assay on Elastin (ELN), the “Effect of increasing the content of Elastin in the fibroblasts” value came to 861.32 and the “increase in the content of Elastin” value is recorded as “significant increase”.
